This is an account of results in patent publication US11732017B2, “HLA-A24 agonist epitopes of MUC1-C oncoprotein and compositions and methods of use” (The USA, as represented by the Secretary, Dept. of Health …, priority 2013, dated 2023).

What all share (format): cell-based, human
The subject of test [1] is PBMCs from vaccinated cancer patients. In words: Establishment of T-cell lines with peptide-pulsed APCs. From the text:
Patients-PBMCs were used from two patients with prostate cancer enrolled in a previously described clinical trial of PSA-TRICOM vaccine in combination with […] al., Lancet Oncol., 13: 501-8 (2012)). An institutional review board of the National Institutes of Health (NIH) Clinical Center had approved the procedures, and informed consent was obtained in accordance with the Declaration of Helsinki. […] Cells were restimulated every 7 days.

The test system of the next test is T-C6A T-cell line. The test can be described thus: Detection of cytokines, T-cell line generated with C6A. The procedure:
(§1) Cells were restimulated every 7 days.
Detection of cytokines—Autologous B cells pulsed with peptides at different concentrations (25, 12.5, 6.25 and 3, 13, and 1.56 μg/ml) were incubated with MUC1-specific T-cell lines at a 2:1 ratio for 24 hours.

The subject of the next test is T-C7 T-cell line. In words: Detection of cytokines, T-cell line generated with native C7. The settings on record: 24 hours with peptide-pulsed B-cells. The procedure:
as §1
(§2) Detection of cytokines—Autologous B cells pulsed with peptides at different concentrations (25, 12.5, 6.25 and 3, 13, and 1.56 μg/ml) were incubated with MUC1-specific T-cell lines at a 2:1 ratio for 24 hours. The supernatants were analyzed for IFN-γ by ELISA (Invitrogen, Frederick, Md.).
(§3) Each cell line was then stimulated for 24 hours with B-cells pulsed with either the native C7 or agonist C7A peptide, and cytokine levels in the supernatant were analyzed.

The test system of another test is T-C7A T-cell line. The test can be described thus: Detection of cytokines, T-cell line generated with agonist C7A. The settings on record: 24 hours with peptide-pulsed B-cells. The procedure: as §1, §2, §3
[2] abbreviates: T-cell line T-C6A stimulated with peptide.
Setting [3] is: stimulation of the T-cell line generated with C6A.

On to KYHPMSEYAL [Peptide C6A], for which the “generation of T-cell lines using APCs pulsed with the peptide” value (from here on “generation of T-cell lines”) in test [1] is on record as “could be generated”. In the test with T-C6A T-cell line (setting [2]), this sequence registered a GM-CSF of 1277 pg/mL/2.5 × 10^5 T cells, an IFN-γ of 3060 pg/mL/2.5 × 10^5 T cells, an IL-2 of 3630 pg/mL/2.5 × 10^5 T cells and an IL-6 of 7.6 pg/mL/2.5 × 10^5 T cells. Also, in the test on T-C6A T-cell line (setting [2]), the IL-8 was 11.8 pg/mL/2.5 × 10^5 T cells, the IL-10 was determined as 16.4 pg/mL/2.5 × 10^5 T cells and the TNFα is 1021 pg/mL/2.5 × 10^5 T cells. In the test on T-C6A T-cell line (setting [3]), the GM-CSF level is on record as > 10,000 pg/mL/10^5 cells, the IFN-γ level is listed as 2,651 pg/mL/10^5 cells, the IL-2 level is below 50 pg/mL/10^5 cells and the IL-6 level is listed as below 50 pg/mL/10^5 cells. In the test with T-C6A T-cell line (setting [3]), the IL-8 level is > 10,000 pg/mL/10^5 cells, the IL-10 level is given as below 50 pg/mL/10^5 cells, the IL-12 level was below 50 pg/mL/10^5 cells and the TNF-α level is 372 pg/mL/10^5 cells.
Take “TYHPMSEYPT [Peptide C6, native MUC1-C HLA-A24 peptide, position 462-471, reference compound]”: the “generation of T-cell lines” value in test [1] is reported as “unsuccessful”.
With “SYTNPAVAA [Peptide C7, native MUC1-C HLA-A24 peptide, position 502-510, reference compound]”, the “generation of T-cell lines” value in test [1] was “could be generated”. In addition, in the test with T-C7 T-cell line, the GM-CSF stood at 237 pg/mL/2.5 × 10^5 T cells, the IFN-γ is 750 pg/mL/2.5 × 10^5 T cells, the IL-2 was below 2.4 pg/mL/2.5 × 10^5 T cells and the IL-6 was 6.4 pg/mL/2.5 × 10^5 T cells. In the test with T-C7 T-cell line, this sequence showed an IL-8 of 6.8 pg/mL/2.5 × 10^5 T cells, an IL-10 of 25 pg/mL/2.5 × 10^5 T cells and a TNFα of 21 pg/mL/2.5 × 10^5 T cells. In the test with T-C7A T-cell line, this sequence came in with a GM-CSF of 215 pg/mL/2.5 × 10^5 T cells, an IFN-γ of 680 pg/mL/2.5 × 10^5 T cells, an IL-2 below 2.4 pg/mL/2.5 × 10^5 T cells and an IL-6 below 2.4 pg/mL/2.5 × 10^5 T cells. In the test on T-C7A T-cell line, this sequence gave an IL-8 of 112 pg/mL/2.5 × 10^5 T cells, an IL-10 of 92 pg/mL/2.5 × 10^5 T cells and a TNFα of 30 pg/mL/2.5 × 10^5 T cells.
In the case of KYTNPAVAL [Peptide C7A], the “generation of T-cell lines” value in test [1] is listed as “could be generated”. In the test with T-C7 T-cell line, this sequence returned a GM-CSF of 300 pg/mL/2.5 × 10^5 T cells, an IFN-γ of 1279 pg/mL/2.5 × 10^5 T cells, an IL-2 below 2.4 pg/mL/2.5 × 10^5 T cells and an IL-6 of 7.7 pg/mL/2.5 × 10^5 T cells. In the test with T-C7 T-cell line, this sequence came in with an IL-8 of 7.3 pg/mL/2.5 × 10^5 T cells, an IL-10 of 45 pg/mL/2.5 × 10^5 T cells and a TNFα of 30 pg/mL/2.5 × 10^5 T cells. In the test with T-C7A T-cell line, this sequence had a GM-CSF of 910 pg/mL/2.5 × 10^5 T cells, an IFN-γ of 2000 pg/mL/2.5 × 10^5 T cells, an IL-2 below 2.4 pg/mL/2.5 × 10^5 T cells and an IL-6 of 40 pg/mL/2.5 × 10^5 T cells. For the same sequence, in the test with T-C7A T-cell line, the IL-8 came out at 360 pg/mL/2.5 × 10^5 T cells, the IL-10 was found to be 375 pg/mL/2.5 × 10^5 T cells and the TNFα came to 70 pg/mL/2.5 × 10^5 T cells.
